Results reported in PubChem BioAssay AID1963429 (Molecular Pharmacology Branch, DTP, NCI, 2024).

Test system: 126254-015-R-J1-PDC complex spheroid growth, % test/control
Test: Anticancer human tumor 126254-015-R-J1-PDC patient-derived soft tissue sarcoma cell line growth inhibition [Asc]
Details: for IC50: curve of first compound; for viability, T/C: stronger effect = lower value; active means viability on the fitted dose curve at most 10% of control; inactive means the rest
Summary of the method: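 Concentration series start at each agent's clinical Cmax, or at 10 microM when none is established, and drop in half-log steps; agents are applied alone or together to complex spheroids built with HUVEC and hMSC.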

[1] = second compound 0.1 µM, first compound 0.00316 µM
[2] = second compound 0.1 µM, first compound 0.01 µM
[3] = second compound 0.1 µM, first compound 0.0316 µM
[4] = second compound 0.1 µM, first compound 0.1 µM
[5] = second compound 0.316 µM, first compound 0.00316 µM
[6] = second compound 0.316 µM, first compound 0.01 µM
[7] = second compound 0.316 µM, first compound 0.0316 µM
[8] = second compound 0.316 µM, first compound 0.1 µM
[9] = second compound 1 µM, first compound 0.00316 µM
[10] = second compound 1 µM, first compound 0.01 µM
[11] = second compound 1 µM, first compound 0.0316 µM
[12] = second compound 1 µM, first compound 0.1 µM
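Further: spheroids exposed to compound for seven days.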
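Wherever viability, T/C is given: 100% = DMSO vehicle control wells.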

NC1CCC(NC2CC2c2ccccc2)CC1 (stereo not given) + Cc1c(S(C)(=O)=O)c(-c2cc(F)cc(N3CCN(c4ccc(NS(=O)(=O)c5ccc(NC(CCN6CCC(C(=O)OCCCP(=O)(O)O)CC6)CSc6ccccc6)c(S(=O)(=O)C(F)(F)F)c5)cc4)CC3)c2)c(-c2ccc(Cl)cc2)n1C(C)C
> 100 nM: IC50 (second compound 0.1 µM) | IC50 (second compound 0.316 µM) | IC50 (second compound 1 µM) | IC50 (second compound 3.16 µM) | IC50 (second compound 10 µM)
inactive: viability, T/C (second compound 0.1 µM, first compound 0.000316 µM) 94.6% | viability, T/C (second compound 0.1 µM, first compound 0.001 µM) 88.8% | viability, T/C [1] 76.7% | viability, T/C [2] 75.4% | viability, T/C [3] 84% | viability, T/C [4] 77.6% | viability, T/C (second compound 0.316 µM, first compound 0.000316 µM) 74.4% | viability, T/C (second compound 0.316 µM, first compound 0.001 µM) 76.5% | viability, T/C [5] 75.3% | viability, T/C [6] 70.1% | viability, T/C [7] 66.5% | viability, T/C [8] 76.1% | viability, T/C (second compound 1 µM, first compound 0.000316 µM) 79% | viability, T/C (second compound 1 µM, first compound 0.001 µM) 81.2% | viability, T/C [9] 73.1% | viability, T/C [10] 71.4% | viability, T/C [11] 73.8% | viability, T/C [12] 60.3% | viability, T/C (second compound 3.16 µM, first compound 0.000316 µM) 81.5% | viability, T/C (second compound 3.16 µM, first compound 0.001 µM) 73.1% | viability, T/C (second compound 3.16 µM, first compound 0.00316 µM) 73.9% | viability, T/C (second compound 3.16 µM, first compound 0.01 µM) 71.2% | viability, T/C (second compound 3.16 µM, first compound 0.0316 µM) 62.3% | viability, T/C (second compound 3.16 µM, first compound 0.1 µM) 65% | viability, T/C (second compound 10 µM, first compound 0.000316 µM) 69.6% | viability, T/C (second compound 10 µM, first compound 0.001 µM) 69.1% | viability, T/C (second compound 10 µM, first compound 0.00316 µM) 70.4% | viability, T/C (second compound 10 µM, first compound 0.01 µM) 71.3% | viability, T/C (second compound 10 µM, first compound 0.0316 µM) 61.1% | viability, T/C (second compound 10 µM, first compound 0.1 µM) 58.2%

COc1c(OCCCN2CCOCC2)ccc2c3n(c(=NC(=O)c4cnc(N)nc4)nc12)CCN3 + CNC(C)C(=O)NC1CN(S(=O)(=O)c2cccc(S(=O)(=O)N3CCC4CCC(C(=O)NC(c5ccccc5)c5ccccc5)N4C(=O)C(NC(=O)C(C)NC)C3)c2)CCC2CCC(C(=O)NC(c3ccccc3)c3ccccc3)N2C1=O
active: viability, T/C (second compound 0.316 µM, first compound 1 µM) 9.08% | viability, T/C (second compound 1 µM, first compound 1 µM) 9.01%
32.3 nM: IC50 (second compound 0.1 µM)
19.9 nM: IC50 (second compound 0.316 µM)
15.8 nM: IC50 (second compound 1 µM)
52 nM: IC50 (second compound 0.01 µM)
inactive: viability, T/C (second compound 0.01 µM, first compound 0.00316 µM) 84.8% | viability, T/C (second compound 0.01 µM, first compound 0.01 µM) 82.4% | viability, T/C (second compound 0.01 µM, first compound 0.0316 µM) 57.8% | viability, T/C (second compound 0.01 µM, first compound 0.1 µM) 37.3% | viability, T/C (second compound 0.01 µM, first compound 0.316 µM) 20.1% | viability, T/C (second compound 0.01 µM, first compound 1 µM) 12.5% | viability, T/C (second compound 0.0316 µM, first compound 0.00316 µM) 74.8% | viability, T/C (second compound 0.0316 µM, first compound 0.01 µM) 73.2% | viability, T/C (second compound 0.0316 µM, first compound 0.0316 µM) 60.7% | viability, T/C (second compound 0.0316 µM, first compound 0.1 µM) 36.6% | viability, T/C (second compound 0.0316 µM, first compound 0.316 µM) 19.3% | viability, T/C (second compound 0.0316 µM, first compound 1 µM) 11.4% | viability, T/C [1] 66.1% | viability, T/C [2] 63.5% | viability, T/C [3] 47.9% | viability, T/C [4] 36% | viability, T/C (second compound 0.1 µM, first compound 0.316 µM) 17.5% | viability, T/C (second compound 0.1 µM, first compound 1 µM) 11.2% | viability, T/C [5] 60.8% | viability, T/C [6] 54.6% | viability, T/C [7] 47.8% | viability, T/C [8] 29.1% | viability, T/C (second compound 0.316 µM, first compound 0.316 µM) 18.2% | viability, T/C [9] 53.7% | viability, T/C [10] 56.6% | viability, T/C [11] 43.6% | viability, T/C [12] 28.3% | viability, T/C (second compound 1 µM, first compound 0.316 µM) 15.6%
53.3 nM: IC50 (second compound 0.0316 µM)
